Legend:
[1] = system: DLD-1 colon cancer cells; test: In vivo tumor formation of DLD-1 cells in NSG mice; design: species or system NOD/Shi-scid/IL-2Rγnull (NSG) mice
Description: (A), IL-22 is expressed in colon cancer tissues. IL-22 mRNA was detected by real-time PCR in colon cancer tissues and peripheral blood. *P<0.05 compared to blood, 20 colon cancer patients. (B-D), Endogenous IL-22 promotes colon carcinogenesis. Single cells (10^7) isolated from colon cancer tissue were mixed with anti-IL-22 antibody or control mAb, and then subcutaneously injected to NSG mice. Tumor growth (B), incidence (C), and animal survival (D) are shown. (P<0.05 for all, n=5 per group). (E-G) Recombinant IL-22 promotes colon carcinogenesis. DLD-1 colon cancer cells (10^5) were pre-incubated with IL-22 (20 ng/ml) for 1 hour, and then subcutaneously injected to NSG mice. Tumor growth (E), incidence (F), and animal survival (G) are shown. (P<0.05 for all, n=5 per group). (H, I) IL-22 enhances colon cancer sphere formation. DLD-1 colon cancer cells were pre-incubated for 24 hours with IL-22. Sphere assay was performed with 2,000 cells. Representative image of spheres (H) and the mean numbers of spheres (I) are shown. *P<0.05, n=5. (J) IL-22 increases ALDH1 activity in colon cancer cells. Colon cancer cell lines (DLD-1 and HT29) and two primary colon cancer cells (1, 2) were cultured with IL-22 for 24 hours. ALDH activity was determined by FACS based on aldefluor fluorescence. Cells treated with DEAB inhibitor were negative controls. Results are expressed as fold changes of ALDH expression. (P<0.05 for all, n=3 repeats per group). (K-M) IL-22 stimulates core stem cell gene expression in colon cancer cells. DLD-1 colon cancer cells were cultured with IL-22 (20 ng/ml). The mRNA of stem cell core gene was detected by real-time PCR (K) and proteins were detected by western blotting (L, M). (*P<0.05, n=5).
IL-22 treated 10^6 DLD-1 cells were inoculated into NSG mice. Tumor incidence (A) and tumor growth (B) were recorded. n=5 per group, P<0.05.
To confirm the tumorigenic potential of endogenous IL-22, different concentrations of a colorectal adenocarcinoma cancer cell line, DLD-1 cells, were injected into the NSG mice to determine a nontumorigenic concentration. […] However, exogenous IL-22 administration enabled tumor formation with 10^5DLD-1 cells as shown by increased tumor volume (FIG. 1E) and incidence (FIG. 1F) and decreased mouse survival (FIG. 1G). When 10^6 DLD-1 cells were inoculated into mice, IL-22 accelerated tumor development (FIG. 13A) and growth as well (FIG. 13B). Thus, IL-22 may enhance tumorigenesis by altering cancer stem cell properties.
Colon cancer cells (10^2-5×10^6) in 100 μl of buffered saline were subcutaneously injected into dorsal tissues of female NOD/Shi-scid/IL-2Rγnull (NSG) mice (6-8 weeks old, Jackson Lab, Bar Harbor, Me.) (see, e.g., Curiel, T. J. et al. (2004) Nat Med 10, 942-949; Curiel, T. J. et al. (2003) Nat Med 9, 562-567; Kryczek, I. et al. (2012) Int J Cancer 130, 29-39). Tumor size was measured two times weekly using calipers fitted with a Vernier scale. Tumor volume was calculated based on three perpendicular measurements (see, e.g., Curiel, T. J. et al. (2004) Nat Med 10, 942-949; Curiel, T. J. et al. (2003) Nat Med 9, 562-567). Tumor incidence was monitored.

[2] = system: EZH2, SUZ12, EED, CBX8; test: PcG / PRC2 component expression (real-time PCR, western blot); assay type: cell-based, human
Procedure: A, C. Cell proliferation was analyzed using H^3 Thymidine Incorporation. B. The level of total H3K79m2 and H3K27me3 was measured by Western Blot. D. PcG proteins of EZH2, EED, SUZ12 was increased with IL-22(20 ng/ml) treatment. E. EZH2, SUZ12 and EED was detected by Western Blot after IL-22 treated for 24 h or 48 h. F. EZH2 inhibitor DZNep reduced cell proliferation. G.H. The efficiency of EZH2 and SUZ12 knock down was tested by Western Blot. I.J. Cell proliferation was analyzed using H^3 Thymidine Incorporation after knock down of EZH2 and SUZ12. K.L. Relative expression of cyclin-dependent kinase inhibitors (p16 and p18) in shEZH2, shSUZ12 and Dznep treated cells after IL-22 treatment. M. The level of H3K27me3 in the promoter of p16 and p18 was analyzed by ChIP assay.
A. The protein level of phosphorylated STAT3, STAT1 and STATS were activated by IL-22. B. The effect of STAT3 knock down. C. The effect of IL-22 on cell proliferation was analyzed using H^3 Thymidine Incorporation in Stat3 knock down cells. D. Knock down of STAT3 reduced the expression of EZH2 and SUZ12. E. Based on the ENCODE STAT3-ChIP-Seq data base, STAT3 occupancy on the promoter areas of SUZ12 and EED is shown. F. SUZ12/EED DNA was detected by ChIP assay using an antibody against STAT3, c-fos was used as a positive control.
The mRNAs were quantified by real-time RT-PCR. SYBR Green Master Mix was used to detect fluorescence. Relative expression was calculated according to the Ct value with normalization to GAPDH.
Western Blot assay was performed with specific antibodies against human Stat3, phosphorylate Stat3 (Cell Signaling), Sox2, SUZ12(Santa Cruz biotechnology), EZH2 (Abcam), H3K27me3 and H3K79me2 (Millipore).

[3] = 10^5 DLD-1 cells pre-incubated with IL-22 (20 ng/ml) 1 hour

Substance: IL-22: recombinant IL-22 (R&D systems), cytokine interleukin-22
- mouse survival [1, 3]: decreased
- tumor incidence [1, 3]: increased
- tumor volume [1, 3]: increased
- tumor development (incidence) ([1]; 10^6 IL-22 treated DLD-1 cells): accelerated
- tumor growth ([1]; 10^6 IL-22 treated DLD-1 cells): accelerated
- protein level of EZH2 and SUZ12 ([2]; FIG. 19D): up regulate
- CBX8 expression ([2]; IL-22 20 ng/ml): increased
- mRNA expression level of EED ([2]; IL-22 20 ng/ml): increased to a lesser extent
- mRNA expression level of SUZ12 ([2]; IL-22 20 ng/ml): significantly increase
- EED and SUZ12 expression (western blotting) ([2]; IL-22 24 h or 48 h): increased to a lesser extent
- EZH2 expression (western blotting) ([2]; IL-22 24 h or 48 h): increased

Source: patent US9618513B2, “Compositions and methods for detecting and treating colorectal cancer” (The Regents of the University of Michigan, priority 2014, dated 2017)
